These results are taken from PubChem BioAssay AID2060502 (Molecular Pharmacology Branch, DTP, NCI, 2025).

Values joined by “and” are separate entries in the source; they are usually repeats but may differ in a detail not shown here. Equal values may be shown once. Where only a bound is given, the exact number is not on record here.

This assay relates to 885724-159-R-J1-PDC complex spheroid viability. In words: Anticancer human tumor 885724-159-R-J1-PDC patient-derived pancreatic adenocarcinoma cell line growth inhibition [GQUAD]. The conditions noted are these: for viability, T/C: stronger effect = lower value. An excerpt:
DNA G-quadruplex Stabilizer Agents in Combinations in Complex Spheroids
A high-throughput screen of multi-cell type tumor spheroids was designed to identify active combinations of DNA G-quadruplex stabilizer agents and targeted small molecules. Complex spheroids include a stromal component modeled by human endothelial cells (HUVEC) and fibroblasts modeled by human mesenchymal stem cells (MSCs). The concentration ranges selected for each drug and investigational agent were based upon clinically achievable concentrations if the clinical Cmax of the agent was known.
Compounds. The drugs and investigational agents: pidnarulex (CX-5461; NSC782164), APTO-253 (NSC789042), BRACO-19 (NSC847499), peposertib (NSC802822), ceralasertib (NSC780249), elimusertib (NSC800525), camonsertib (NSC841442), AZD-1390 (NSC803789), olaparib (NSC753686), talazoparib (NSC767125), ART-558 (NSC835418), sotorasib (NSC818433), MRTX-1133 (NSC836407), SN-38 (NSC673596), topotecan (NSC609699), etoposide (NSC141540), doxorubicin (NSC123127), gemcitabine (NSC613327), 5-fluorouracil (NSC19893), paclitaxel (NSC125973), vemurafenib (NSC761431), panobinostat (NSC761190), R-306465 (JNJ-16241199; NSC773264), adavosertib (NSC754352), TP-3654 (NSC805149), carboplatin (NSC241240), KSQ-4279 (NSC840948), and staurosporine (NSC755774) were obtained from the National Cancer Institute (NCI) Developmental Therapeutics Program Chemical Repository (34). The FDA-approved anticancer drug set is available from the NCI Developmental Therapeutics Program. […] The stock solutions were prepared in dimethyl sulfoxide (DMSO, Sigma-Aldrich, St. Louis, MO, cat. D2650) at 800-fold the tested concentration and stored at -70 degrees C prior to their use. All drugs and investigational agents were tested over a range starting from a high concentration at or near the clinical Cmax and decreasing in half-log increments. If the clinical Cmax for an agent had not been determined, the highest concentration tested was 10 microM.
2.3 Cell Culture. All cells were maintained in an incubator at 37 degrees C and 5% CO2 with 95% humidity. The PDC lines were cultured according to standard operating procedures established by the NCI PDMR. All PDCs were thawed and cultured in Matrigel-coated flasks prepared with a working solution of 1X Ham's F-12 nutrient mix, without supplementation (Invitrogen, cat. 11765054), 100 U/mL penicillin-streptomycin (Invitrogen, cat. 15140122), and 2.5% Matrigel (Corning Inc., cat. 354248) for the first three passages. The 857933-349-R-J2-PDC line was cultured in 6C/Colon 1B media, which includes advanced DMEM/F-12 (Thermo Fisher Scientific, cat. 12634028), 10 mM HEPES (Thermo Fisher Scientific, cat. 15630080), 1X GlutaMAX supplement (Thermo Fisher Scientific, cat. 35050061), 0.1 mg/mL primocin (InvivoGen, cat. ant-pm-2), 10% defined fetal bovine serum, heat inactivated (HyClone Laboratories Inc., cat. SH30070.03HI), 50% L-WRN conditioned media (ATCC, cat. CRL-3276), 1.25 mM N-Acetyl-L-cysteine (Sigma-Aldrich, cat. A9165), 10 mM nicotinamide (Sigma-Aldrich, cat. N0636), 1X B-27 supplement (Thermo Fisher Scientific, cat. 17504044), 1X N-2 supplement (Thermo Fisher Scientific, cat. 17502048), 10 microM Y-27632 dihydrochloride (Tocris Bioscience, cat. 1254), and 50 ng/mL human EGF recombinant protein (Thermo Fisher Scientific, cat. PHG0311). The 485176-168-R4-J1-PDC line was cultured in Panc media, which includes all 6C/Colon 1B media components plus 100 ng/mL human FGF-10 (Thermo Fisher Scientific, cat. 100-26), 500 nM SB-431542 (Selleckchem, cat. S1067), and gastrin (Tocris, cat. 3006).
[…]

The mark [1] stands for this setting: curve of first compound, second compound 0.0316 µM.
Where [2] appears, read: curve of first compound, second compound 0.1 µM.
Setting [3] is: curve of first compound, second compound 0.316 µM.
Where [4] appears, read: curve of first compound, second compound 1 µM.
[5] abbreviates: curve of first compound, second compound 3.16 µM.
Setting [6] is: curve of first compound, second compound 10 µM.
Setting [7] is: second compound 0.0316 µM, first compound 0.0316 µM.
[8] abbreviates: second compound 0.0316 µM, first compound 0.316 µM.
The mark [9] stands for this setting: second compound 0.1 µM, first compound 0.0316 µM.
The mark [10] stands for this setting: second compound 0.1 µM, first compound 0.316 µM.
[11] abbreviates: second compound 0.316 µM, first compound 0.0316 µM.
The mark [12] stands for this setting: second compound 0.316 µM, first compound 0.316 µM.
Where [13] appears, read: second compound 1 µM, first compound 0.0316 µM.
The mark [14] stands for this setting: second compound 1 µM, first compound 0.316 µM.
[15] abbreviates: second compound 3.16 µM, first compound 0.0316 µM.
[16] abbreviates: second compound 3.16 µM, first compound 0.316 µM.
Where [17] appears, read: second compound 10 µM, first compound 0.0316 µM.
[18] abbreviates: second compound 10 µM, first compound 0.316 µM.
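Note: spheroids exposed to agents for seven days before readout.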
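Throughout, for viability, T/C: percent of vehicle control viability where 100% = DMSO wells.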

For `COc1ncnc(C2CC2)c1-c1ncc2cnn(Cc3ccc(-c4nc(C(F)(F)F)cn4C(C)C)cc3)c2n1`, the viability, T/C (commonly the result in the treated group divided by that in the control group, in per cent) runs as follows: (compound 0.0316 µM) 86.6% and 90.5% and 93%; (compound 0.1 µM) 95.1% and 90.7% and 98.2%; (compound 0.316 µM) 99% and 97.4% and 93.2%; (compound 1 µM) 99.8% and 90.6% and 97.7%; (compound 3.16 µM) 90.2% and 96% and 92.5%; (compound 10 µM) 115% and 101% and 113%. The half-inhibitory concentration (IC50) (usually the concentration that gives 50% inhibition) (curve of compound) is over 10 µM.

Regarding `CC[C@@]1(O)C(=O)OCc2c1cc1n(c2=O)Cc2cc3c(CN(C)C)c(O)ccc3nc2-1` + Cc1cnc(CNC(=O)c2c(=O)c3ccc(N4CCCN(C)CC4)nc3n3c2sc2ccccc23)cn1, the half-maximal inhibitory concentration (IC50) was over 0.316 µM under setting [1]; over 0.316 µM under setting [2]; over 0.316 µM under setting [3]; over 0.316 µM under setting [4]; over 0.316 µM under setting [5]; over 0.316 µM under setting [6]. The viability, T/C is 117% (second compound 0.0316 µM, first compound 0.000999 µM); 95.5% (second compound 0.0316 µM, first compound 0.00316 µM); 103% (second compound 0.0316 µM, first compound 0.00999 µM); 106% under setting [7]; 89.1% (second compound 0.0316 µM, first compound 0.0999 µM); 65.5% under setting [8]. Besides, the viability, T/C (second compound 0.1 µM, first compound 0.000999 µM) is 125%; the viability, T/C (second compound 0.1 µM, first compound 0.00316 µM) was 98.7%; the viability, T/C (second compound 0.1 µM, first compound 0.00999 µM) is 101%; the viability, T/C under setting [9] is 103%; the viability, T/C (second compound 0.1 µM, first compound 0.0999 µM) was 85.5%; the viability, T/C under setting [10] is 75.2%. Moreover, the viability, T/C is 96.1% (second compound 0.316 µM, first compound 0.000999 µM); 104% (second compound 0.316 µM, first compound 0.00316 µM); 87.6% (second compound 0.316 µM, first compound 0.00999 µM); 95% under setting [11]; 100% (second compound 0.316 µM, first compound 0.0999 µM); 70.1% under setting [12]. Further, the viability, T/C (second compound 1 µM, first compound 0.000999 µM) was 88.6%; the viability, T/C (second compound 1 µM, first compound 0.00316 µM) was 84.1%; the viability, T/C (second compound 1 µM, first compound 0.00999 µM) is 95.2%; the viability, T/C under setting [13] is 80.3%; the viability, T/C (second compound 1 µM, first compound 0.0999 µM) was 87.8%; the viability, T/C under setting [14] is 70.3%. Also, the viability, T/C is, setting by setting: (second compound 3.16 µM, first compound 0.000999 µM) 74.8%; (second compound 3.16 µM, first compound 0.00316 µM) 69.5%; (second compound 3.16 µM, first compound 0.00999 µM) 75%; under setting [15], 75.9%; (second compound 3.16 µM, first compound 0.0999 µM) 73.9%; under setting [16], 64.5%. The viability, T/C by setting is: (second compound 10 µM, first compound 0.000999 µM) 70.7%; (second compound 10 µM, first compound 0.00316 µM) 81.1%; (second compound 10 µM, first compound 0.00999 µM) 72.7%; under setting [17], 74.2%; (second compound 10 µM, first compound 0.0999 µM) 80%; under setting [18], 69.1%.

Consider `COc1cccc2c1C(=O)c1c(O)c3c(c(O)c1C2=O)CC(O)(C(=O)CO)CC3OC1CC(N)C(O)C(C)O1` (stereo not given) + Cc1cnc(CNC(=O)c2c(=O)c3ccc(N4CCCN(C)CC4)nc3n3c2sc2ccccc23)cn1, for which the concentration for half-maximal inhibition (IC50) was found to be 2.42 µM under setting [1]; 2.03 µM under setting [2]; 1.78 µM under setting [3]; 1.34 µM under setting [4]; 1.05 µM under setting [5]; 0.889 µM under setting [6]. The viability, T/C is, setting by setting: under setting [7], 118%; (second compound 0.0316 µM, first compound 0.1 µM) 99.5%; under setting [8], 97.7%; (second compound 0.0316 µM, first compound 1 µM) 79.2%; (second compound 0.0316 µM, first compound 3.16 µM) 39.8%; (second compound 0.0316 µM, first compound 10 µM) 3.19%. Further, the viability, T/C was 106% under setting [9]; 109% (second compound 0.1 µM, first compound 0.1 µM); 99% under setting [10]; 83.1% (second compound 0.1 µM, first compound 1 µM); 29.6% (second compound 0.1 µM, first compound 3.16 µM); 2.62% (second compound 0.1 µM, first compound 10 µM). Also, the viability, T/C under setting [11] is 96.9%; the viability, T/C (second compound 0.316 µM, first compound 0.1 µM) is 93%; the viability, T/C under setting [12] is 89.2%; the viability, T/C (second compound 0.316 µM, first compound 1 µM) was 62.6%; the viability, T/C (second compound 0.316 µM, first compound 3.16 µM) is 35.8%; the viability, T/C (second compound 0.316 µM, first compound 10 µM) was 4.79%. In addition, the viability, T/C was 89.7% under setting [13]; 88.8% (second compound 1 µM, first compound 0.1 µM); 85.2% under setting [14]; 57.2% (second compound 1 µM, first compound 1 µM); 24.1% (second compound 1 µM, first compound 3.16 µM); 2.16% (second compound 1 µM, first compound 10 µM). The viability, T/C by setting is: under setting [15], 88.1%; (second compound 3.16 µM, first compound 0.1 µM) 84.8%; under setting [16], 73.2%; (second compound 3.16 µM, first compound 1 µM) 53.6%; (second compound 3.16 µM, first compound 3.16 µM) 17.4%; (second compound 3.16 µM, first compound 10 µM) 0.96%. In addition, the viability, T/C runs as follows: under setting [17], 72.2%; (second compound 10 µM, first compound 0.1 µM) 80.4%; under setting [18], 74%; (second compound 10 µM, first compound 1 µM) 46.4%; (second compound 10 µM, first compound 3.16 µM) 12.4%; (second compound 10 µM, first compound 10 µM) 0.74%.

Take `COc1cccc2c1C(=O)c1c(O)c3c(c(O)c1C2=O)CC(O)(C(=O)CO)CC3OC1CC(N)C(O)C(C)O1` (stereo not given): the viability, T/C (compound 0.0316 µM) is 92.3% and 103% and 104%; the viability, T/C (compound 0.1 µM) was 92.3% and 81.3% and 102%; the viability, T/C (compound 0.316 µM) was 80.3% and 79.5% and 78.9%; the viability, T/C (compound 1 µM) is 84.3% and 81.4% and 81.6%; the viability, T/C (compound 3.16 µM) was 38.4% and 40.1% and 34.5%; the viability, T/C (compound 10 µM) is 4.02% and 1.94% and 3.83%. Moreover, the IC50 (curve of compound) was 2.35 µM and 2.39 µM and 2.14 µM.

Consider `CC1COCCN1c1cc(-c2ccnn2C)c2ccnc(-c3ccn[nH]3)c2n1` (stereo not given), for which the viability, T/C (compound 0.0316 µM) was 104% and 98% and 79.1%; the viability, T/C (compound 0.1 µM) is 93% and 80.3% and 83.4%; the viability, T/C (compound 0.316 µM) is 83.2% and 68.7% and 75%; the viability, T/C (compound 1 µM) was 69.1% and 67.7% and 69.3%; the viability, T/C (compound 3.16 µM) is 58.6% and 51.1% and 45.9%; the viability, T/C (compound 10 µM) was 45.6% and 52.2% and 42.1%. The IC50 (curve of compound) is 6.76 µM and > 10 µM and 2.65 µM.
